{"source": "patent US20170211043A1", "about": "“METHOD FOR IN VITRO PRODUCTION OF ADIPOCYTE PROGENITORS AND ADIPOCYTES” (UNIVERSITE PIERRE ET MARIE CURIE (PARIS 6), priority 2014, published 2017)", "format_in_all_cases": "cell-based, human", "key": {"[1]": {"system": "PGC1α, PRDM16, PPARα and DIO2", "experiment": "Real-time quantitative PCR of thermogenesis genes after 8-Br-cAMP", "conditions": "after 48 hours, D20 adipocytes, vs basal", "description": "Total RNAs were extracted using the NucleoSpin RNA kit (Macherey Nagel) according to the manufacturer's recommendations. The concentration of total RNAs extracted and their contamination by solvents or salts were evaluated by microspectrophotometry (Nanodrop). Reverse transcription was carried out using the High Capacity cDNA Reverse Transcription Kit (Applied Biosystems). Quantitative PCR was then carried out by adding 2 μL of cDNA diluted 10 times, 10 μL of SYBR Green I PCR mix (Roche Diagnostics, including DNA polymerase, dNTPs, 3 mM MgCl2 and SYBR Green fluorescent probe), 0.2 μM sense primer and 0.2 μM antisense primer (Table 2 below). The reference gene GAPDH was used to normalize the expression of the genes of interest.\n(§1) The adipocytes were optionally treated for 6 hours with 10^−5 M isoproterenol (Sigma), then the protein samples were collected. For a longer stimulation, the adipocytes were treated with a non-metabolizable cAMP analogue, 8-Br-cAMP (Sigma), for 48 hours."}, "beige adipocytes": {"system": "beige adipocytes", "experiment": "MitoTracker staining of adipocytes after 8-Br-cAMP", "conditions": "after 48 hours, vs basal", "description": "as §1\nLiving cells at D20 of differentiation were incubated with 1 μM MitoTracker® Red CMXRos (Life Technologies®) for 45 minutes in the dark at 37° C., 5% CO2. After rinsing twice with PBS, the cells were fixed with 3% PFA for 15 minutes at room temperature. The preparation was then incubated for 15 minutes with 1 ng/mL BODIPY 493/503 (Molecular Probes®, D-3922) then rinsed 3 times with PBS before being incubated for 5 minutes in DAPI (4′-6-diamidino-2-phenylindole, VWR). After applying the mounting medium (Fluoromount-G™, Southern Biotech), the cells were observed using a confocal microscope (Leica)."}, "[2]": {"system": "insulin receptor (IR) and AKT/PKB", "experiment": "Short insulin treatment of adipocytes derived from iPS cells, phospho-specific Western blot", "conditions": "adipocytes after 20 days of differentiation", "description": "The adipocytes were lysed in a suitable volume of lysis buffer (50 mM Tris pH 7.4, 0.27 M sucrose, 1 mM Na-orthovanadate pH 10, 1 mM EDTA, 1 mM EGTA, 10 mM (3-glycerophosphate, 50 mM NaF, 5 mM pyrophosphate, 1% (w/v) Triton X-100, 0.1% (w/v) 2-β-mercaptoethanol, and protease inhibitors). The total lysates were centrifuged (15,000 g, 4° C. for 10 minutes) then stored at −80° C. until use. The protein concentrations were determined using the Bradford method with bovine albumin as the standard. The samples underwent SDS/PAGE migration on polyacrylamide gels and then were transferred onto nitrocellulose membranes (Amersham Biosciences), blocked for 2 hours at room temperature in TBS-T buffer (50 mM Tris-HCl pH 7.6, 150 mM NaCl, 0.1% (v/v) Tween-20) supplemented with 5% (w/v) skimmed milk or BSA, and incubated with the various antibodies specific to the protein of interest (Table 1 above).\nThe nitrocellulose membranes were rinsed 3×5 minutes in TBS-T buffer before being incubated with the secondary antibody coupled to peroxidase. The signals were detected using chemiluminescence (Pierce-Perbio Biotechnologies) by exposure on autoradiographic film (Kodak)."}}, "data": [{"compound": "Nc1ncnc2c1nc(Br)n2[C@@H]1O[C@@H]2COP(=O)(O)O[C@H]2[C@H]1O", "note": "[8-Br-cAMP]", "values": [{"measurement": "expression of genes involved in thermogenesis (PGC1α, PRDM16, PPARα, DIO2)", "setting": "[1]", "result": "increase"}, {"measurement": "number of mitochondria in the beige adipocytes", "setting": "beige adipocytes", "result": "increase in the number of mitochondria"}]}, {"compound": "insulin", "values": [{"measurement": "phosphorylation of the insulin receptor (IR) subunit and its target AKT", "setting": "[2]", "result": "strong phosphorylation"}]}]}
